Results published in paper PMC9649518, “Knockout of ABC transporters by CRISPR/Cas9 contributes to reliable and accurate transporter substrate identification for drug discovery” (Frontiers in Pharmacology, 2022).

Assays:
MDCKⅡ-MDR1 = system: MDCKⅡ-MDR1; parameters: method as in Agarwal et al., 2007; settings: MDCKⅡ-MDR1 treated with P-gp inhibitors; ref Agarwal et al., 2007; cited from earlier work
[1] = Bidirectional transport assay across MRP2/BCRP double KO Caco-2 monolayers; settings: human
Procedure: (§1) Then, HBSS was aspirated from both sides.
(§2) For MRP2, the nonfluorescent compound CDCFDA was used as the probe substrate. […] After treatment, samples were transferred to black-walled 96-well assay plates. A standard curve of 2-fold serial dilution from 10 µM CDCF was generated. The CDCF concentration was measured based on the fluorescence in a microplate fluorescence reader (Tecan, Switzerland) set at 485 nm and 530 nm for the excitation and emission wavelengths, respectively.

[2] = Bidirectional transport assay across P-gp/BCRP double KO Caco-2 monolayers; settings: human, pH 7.4
Procedure: (§3) The medium was replaced every second day.
as §1, §2

[3] = Bidirectional transport assay across Caco-2 WT monolayers; settings: human, Caco-2, pH 7.4
Procedure: as §1, §2

[4] = Bidirectional transport assay across BCRP KO Caco-2 monolayers; settings: human, pH 7.4
Procedure: as §1, §2

[5] = Bidirectional transport assay across P-gp KO Caco-2 monolayers; settings: human, pH 7.4
[6] = Bidirectional transport assay across MRP2 KO Caco-2 monolayers; settings: human
Procedure: as §1, §2

MRP2 [7] = system: MRP2; parameters: method as in Bierman et al., 2010; Holmstock et al., 2018; settings: 5 μM and 10 µM; ref Bierman et al., 2010; Holmstock et al., 2018; cited from earlier work
[8] = Bidirectional transport assay across P-gp/MRP2 double KO Caco-2 monolayers; settings: human, pH 7.4
Procedure: as §3, §1, §2

MRP2 [9] = system: MRP2; parameters: method as in Koenig et al., 2010; Swedrowska et al., 2017; settings: 50 µM; Caco-2 cells; ref Koenig et al., 2010; Swedrowska et al., 2017; cited from earlier work

Structure (SMILES) | Increase of Papp (A-B) (MDCKⅡ-MDR1) | Papp B→A at 1 h, 5 μM ([1]; pH 7.4) [×10⁻⁶ cm/s] | Papp A→B at 1 h, 5 μM ([1]; pH 7.4, Papp A-to-B, Caco^MRP2−/−BCRP−/−, 5 μM substrate, 1 h, 37°C, HBSS pH 7.4, n = 3) [×10⁻⁶ cm/s] | Papp A→B at 1 h, 5 μM [2] [×10⁻⁶ cm/s] | Papp B→A at 1 h, 5 μM [2] [×10⁻⁶ cm/s] | Papp A→B at 1 h, 5 μM [3] [×10⁻⁶ cm/s] | Papp B→A at 1 h, 5 μM [3] [×10⁻⁶ cm/s] | Papp A→B at 1 h, 5 μM [4] [×10⁻⁶ cm/s] | Papp B→A at 1 h, 5 μM [4] [×10⁻⁶ cm/s] | Papp A→B at 1 h, 5 μM [5] [×10⁻⁶ cm/s] | Papp B→A at 1 h, 5 μM [5] [×10⁻⁶ cm/s] | Papp B→A at 1 h, 5 μM ([6]; pH 7.4) [×10⁻⁶ cm/s] | Papp A→B at 1 h, 5 μM ([6]; pH 7.4, Papp A-to-B, Caco^MRP2−/−, 5 μM substrate, 1 h, 37°C, HBSS pH 7.4, n = 3) [×10⁻⁶ cm/s] | Transport activity of MRP2 (MRP2 [7]) | Papp A→B at 1 h, 5 μM [8] [×10⁻⁶ cm/s] | Papp B→A at 1 h, 5 μM [8] [×10⁻⁶ cm/s] | Effect on darunavir efflux transport (MRP2 [9])
Cc1cccc(C)c1OCC(=O)N[C@@H](Cc1ccccc1)[C@@H](O)C[C@H](Cc1ccccc1)NC(=O)[C@H](C(C)C)N1CCCNC1=O [Lopinavir, lopinavir] | up to 6 folds | 19 ± 3.05 | ~1 | 15.2 ± 1.44 | 10.3 ± 0.82 | 3.25 ± 0.59 | 24.5 ± 2.04 | 5.79 ± 0.64 | 18.4 ± 0.98 | 10.2 ± 0.27 | 6.59 ± 0.62 | 20.1 ± 2.26 | ~1 | inhibited | 13.8 ± 1.01 | 11.5 ± 0.96 | –
O=C1OC(c2ccc(O)c(S(=O)(=O)O)c2)(c2ccc(O)c(S(=O)(=O)O)c2)c2c(Br)c(Br)c(Br)c(Br)c21 [bromsulphthalein] | – | – | – | – | – | – | – | – | – | – | – | – | – | – | – | – | significant suppression
